Experimental findings from patent US12011444B2, “N-substituted indole derivatives as PGE2 receptor modulators” (Idorsia Pharmaceuticals Ltd, priority 2015, dated 2024) are described below.

Assay [1] concerns the target PTGER2 (EP2) (Homo sapiens (Human), UniProt P43116). The assay is described as follows: hEP2 b-arrestin assay (PathHunter HEK 293 PTGER2 b-arrestin cells). The class given is cell-based. As to conditions: antagonistic activity on hEP2; mean where measured multiple times. An outline of the steps: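 HEK293 cells expressing ProLink-tagged EP2 and EA-fused β-arrestin 2 (enzyme fragment complementation) were seeded 24 h, pre-incubated with compound 15 min at 37 °C, then stimulated with 5 μM PGE2 (final) for 120 min.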

For assay [2], the target named is PTRGER4 (EP4) (Homo sapiens (Human), UniProt P35408). The assay is described as follows: hEP4 b-arrestin assay (PathHunter HEK 293 PTGER4 b-arrestin cells). The format is cell-based. Particulars: antagonistic activity on hEP4; mean where measured multiple times. An outline of the steps:
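Stably transfected HEK293 cells carrying EP4–ProLink and β-arrestin 2–EA (β-gal fragment complementation), pre-incubated with compound 15 min at 37 °C, then stimulated with PGE2 (20 nM final) for 120 min at 37 °C. Chemiluminescence read after 1 h detection reagent at room temperature; activity per concentration expressed as percent of DMSO control.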

Each structure is given as a SMILES string.

Sequence of PTGER2 (EP2) (P43116 whole entry, the tested form may be a part): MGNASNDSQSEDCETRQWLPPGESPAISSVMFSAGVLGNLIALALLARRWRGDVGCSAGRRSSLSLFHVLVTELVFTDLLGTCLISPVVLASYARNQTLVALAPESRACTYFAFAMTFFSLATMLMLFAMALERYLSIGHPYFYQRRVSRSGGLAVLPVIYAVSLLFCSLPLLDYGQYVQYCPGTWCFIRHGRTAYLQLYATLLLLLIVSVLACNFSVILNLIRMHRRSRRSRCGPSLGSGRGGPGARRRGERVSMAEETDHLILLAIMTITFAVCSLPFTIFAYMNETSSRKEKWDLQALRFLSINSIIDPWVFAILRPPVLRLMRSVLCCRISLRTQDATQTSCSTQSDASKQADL
Sequence of PTRGER4 (EP4) (P35408 whole entry, looked up, the tested form may be a part): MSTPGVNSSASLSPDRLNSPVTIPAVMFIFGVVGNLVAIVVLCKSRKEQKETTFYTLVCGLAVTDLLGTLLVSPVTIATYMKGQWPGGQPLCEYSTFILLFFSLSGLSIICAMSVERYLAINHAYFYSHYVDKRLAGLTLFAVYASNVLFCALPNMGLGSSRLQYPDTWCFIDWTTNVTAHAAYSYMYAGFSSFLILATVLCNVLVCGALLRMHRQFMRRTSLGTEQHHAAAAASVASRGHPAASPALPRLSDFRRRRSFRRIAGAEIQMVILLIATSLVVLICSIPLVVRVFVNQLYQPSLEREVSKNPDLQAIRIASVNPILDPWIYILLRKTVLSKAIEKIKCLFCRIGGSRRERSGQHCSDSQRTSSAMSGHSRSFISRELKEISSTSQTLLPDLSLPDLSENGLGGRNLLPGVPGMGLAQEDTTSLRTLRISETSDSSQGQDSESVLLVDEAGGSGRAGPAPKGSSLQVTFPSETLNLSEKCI

As to `CCOc1cc(-c2cc(NCCn3c(C)cc4c(Cl)c(F)cc(Cl)c43)ncn2)ccc1C(=O)O` [compound 351], the IC50 in assay [1] was determined as 52 nM; in assay [2], 688 nM.
For `COc1cccc2c1cc(C)n2CCNc1cc(-c2ccc3[nH]c(C)nc3c2)ncn1` [compound 352], in that order: 49 nM and 481 nM.
The like results for `CCNc1cc(-c2cc(NCCn3c(C)cc4c(C)ccc(F)c43)ncn2)cc(Cl)c1C(=O)O` [compound 353, 2-Chloro-6-ethylamino-4-{6-[2-(7-fluoro-2,4-dimethyl-indol-1-yl)-ethylamino]-pyrimidin-4-yl}-benzoic acid] were, in that order, 13 nM and 213 nM.
The like results for `Cc1cc(F)cc2c1cc(C)n2CCNc1cc(-c2ccc(C(=O)O)c(C3CC3)c2)ncn1` [compound 354] were, in that order, 32 nM and 772 nM.
On to `Cc1ccc(F)c2c1cc(C)n2CCNc1cc(-c2ccc3ncccc3c2)ncn1` [compound 355], for which the results for the 50% inhibitory concentration (IC50) in assay [1] and in assay [2] were 48 nM and 134 nM, respectively.
For `CCCNc1cc(-c2cc(NCCn3c(C)cc4c(C)ccc(F)c43)ncn2)ccc1C(=O)O` [compound 356, 4-{6-[2-(7-Fluoro-2,4-dimethyl-indol-1-yl)-ethylamino]-pyrimidin-4-yl}-2-propylamino-benzoic acid], in that order: 15 nM and 165 nM.
Regarding `Cc1ccc(F)c2c1cc(C)n2CCNc1cc(-c2ccc3ccncc3c2)ncn1` [compound 357], the values for the IC50 in assay [1] and in assay [2] were 54 nM and 272 nM, respectively.
The like results for `CCOc1cc(-c2cc(NCCn3c(C)cc4c(OC)ccc(F)c43)ncn2)ccc1CNC` [compound 358] were, in that order, 369 nM and 731 nM.
For `COc1ccc(F)c2c1cc(C)n2CCNc1cc(-c2cc(F)c(S(N)(=O)=O)c(F)c2)ncn1` [compound 359, 2,6-Difluoro-4-{6-[2-(7-fluoro-4-methoxy-2-methyl-indol-1-yl)-ethylamino]-pyrimidin-4-yl}-benzenesulfonamide], in that order: 34 nM and 500 nM.
With `CNS(=O)(=O)c1ccc(-c2cc(NCCn3c(C)cc4c(OC)ccc(F)c43)ncn2)cc1C` [compound 360], the figures for the IC50 in assay [1] and in assay [2] were 75 nM and 372 nM, respectively.
For `COc1ccc(F)c2c1cc(C)n2CCNc1cc(-c2ccc(C(=O)NCCO)cc2)ncn1` [compound 361], in that order: 67 nM and 678 nM.
As for `CCNc1cc(-c2cc(NCCn3c(C)cc4c(OC)cccc43)ncn2)cc(Cl)c1C(=O)O` [compound 362, 2-Chloro-6-ethylamino-4-{6-[2-(4-methoxy-2-methyl-indol-1-yl)-ethylamino]-pyrimidin-4-yl}-benzoic acid], the results for the IC50 in assay [1] and in assay [2] were 3 nM and 281 nM, respectively.
The like results for `Cc1cc2ccccc2n1CCNc1cc(-c2ccc(-c3nnc(N)s3)cc2)ncn1` [compound 363] were, in that order, 1 nM and 474 nM.
The like results for `CCOc1cc(-c2cc(NCCn3c(C)cc4c(OC)c(F)cc(F)c43)ncn2)ccc1C(=O)O` [compound 364] were, in that order, 84 nM and 543 nM.
`CCOc1cc(-c2cc(NCCn3c(C)cc4c(OC)ccc(Cl)c43)ncn2)cc(C)c1C(=O)O` [compound 365, 4-{6-[2-(7-Chloro-4-methoxy-2-methyl-indol-1-yl)-ethylamino]-pyrimidin-4-yl}-2-ethoxy-6-methyl-benzoic acid]: the IC50 in assay [1] was found to be 25 nM; in assay [2] it was 409 nM.
For the compound `CCOc1cc(-c2cc(NCCn3c(C)cc4c(OC)ccc(F)c43)ncn2)cc(C)c1C(=O)O` [compound 366, 2-Ethoxy-4-{6-[2-(7-fluoro-4-methoxy-2-methyl-indol-1-yl)-ethylamino]-pyrimidin-4-yl}-6-methyl-benzoic acid], the values for the IC50 in assay [1] and in assay [2] were 22 nM and 262 nM, respectively.
The like results for `Cc1cc2c(F)ccc(F)c2n1CCNc1cc(-c2ccc(C(=O)O)c(CCC(C)C)c2)ncn1` [compound 367, 4-{6-[2-(4,7-Difluoro-2-methyl-indol-1-yl)-ethylamino]-pyrimidin-4-yl}-2-(3-methyl-butyl)-benzoic acid] were, in that order, 14 nM and 961 nM.
Take `Cc1ccc(Cl)c2c1cc(C)n2CCNc1cc(-c2ccc(C(=O)O)c(SCC(C)C)c2)ncn1` [compound 368]: the IC50 in assay [1] is 63 nM; in assay [2] it was 360 nM.
For `Cc1ccc(F)c2c1cc(C)n2CCNc1cc(-c2ccc(C(=O)O)c(CCC(C)C)c2)ncn1` [compound 369], in that order: 87 nM and 238 nM.
For `Cc1cc2c(Cl)ccc(Cl)c2n1CCNc1cc(-c2ccc(C(=O)O)c(SCC(C)C)c2)ncn1` [compound 370, 4-{6-[2-(4,7-Dichloro-2-methyl-indol-1-yl)-ethylamino]-pyrimidin-4-yl}-2-isobutylsulfanyl-benzoic acid], the values for the IC50 in assay [1] and in assay [2] were 35 nM and 992 nM, respectively.
For the compound `CCCSc1cc(-c2cc(NCCn3c(C)cc4c(C)c(F)cc(Cl)c43)ncn2)ccc1C(=O)O` [compound 371], the IC50 was 70 nM in assay [1] and 875 nM in assay [2].
Take `CCCc1cc(-c2cc(NCCn3c(C)cc4cc(OC)cc(F)c43)ncn2)cc(Cl)c1C(=O)O` [compound 372]: the IC50 in assay [1] came out at 260 nM; in assay [2], 381 nM.
The like results for `CCCc1cc(-c2cc(NCCn3c(C)cc4c(OC)c(F)cc(F)c43)ncn2)ccc1C(=O)O` [compound 373] were, in that order, 79 nM and 183 nM.
For `CCNC(=O)Nc1ccc(-c2cc(NCCn3c(C)cc4c(C)ccc(F)c43)ncn2)cc1OC` [compound 374], in that order: 53 nM and 67 nM.
For `CCNC(=O)Nc1ccc(-c2cc(NCCn3c(C)cc4c(OC)cccc43)ncn2)cc1OC` [compound 375, 1-Ethyl-3-(2-methoxy-4-{6-[2-(4-methoxy-2-methyl-indol-1-yl)-ethylamino]-pyrimidin-4-yl}-phenyl)-urea], in that order: 20 nM and 57 nM.
For `COc1ccc(F)c2c1cc(C)n2CCNc1cc(-c2ccc3nccnc3c2)ncn1` [compound 376], the IC50 stood at 50 nM in assay [1] and 184 nM in assay [2].
The like results for `CCOc1cc(-c2cc(NCCn3c(C)cc4c(OC)ccc(F)c43)ncn2)ccc1S(N)(=O)=O` [compound 377] were, in that order, 51 nM and 697 nM.
The like results for `Cc1ccc(F)c2c1cc(C)n2CCNc1cc(-c2ccc(C3(C(=O)O)CC3)c(F)c2)ncn1` [compound 378] were, in that order, 340 nM and 449 nM.
Turning to `Cc1ccc(F)c2c1cc(C)n2CCNc1cc(-c2ccc(S(N)(=O)=O)c(C(F)(F)F)c2)ncn1` [compound 379], the IC50 in assay [1] turned out to be 63 nM; in assay [2], 354 nM.
For `COc1cccc2c1cc(C)n2CCNc1cc(-c2ccc(S(N)(=O)=O)c(C(F)(F)F)c2)ncn1` [compound 380], in that order: 58 nM and 677 nM.
For `CCNc1cc(-c2cc(NCCn3c(C)cc4c(OC)ccc(F)c43)ncn2)cc(Cl)c1C(=O)O` [compound 381, 2-Chloro-6-ethylamino-4-{6-[2-(7-fluoro-4-methoxy-2-methyl-indol-1-yl)-ethylamino]-pyrimidin-4-yl}-benzoic acid], in that order: 3 nM and 84 nM.
Take `COc1cc(F)cc2c1cc(C)n2CCNc1cc(-c2ccc(C(=O)O)c(C3CC3)c2)ncn1` [compound 382]: the IC50 in assay [1] was found to be 27 nM; in assay [2], 359 nM.
As for `COc1ccc(F)c2c1cc(C)n2CCNc1cc(-c2ccc3ccncc3c2)ncn1` [compound 383], the IC50 was determined as 17 nM in assay [1] and 147 nM in assay [2].
As to `COc1ccc(F)c2c1cc(C)n2CCNc1cc(-c2ccc3ncccc3c2)ncn1` [compound 384], the IC50 came to 13 nM in assay [1] and 60 nM in assay [2].
For `COc1ccc(F)c2c1cc(C)n2CCNc1cc(-c2ccc(C3(N)CC3)cc2)ncn1` [compound 385], in that order: 183 nM and 468 nM.
For `COc1cccc2c1cc(C)n2CCNc1cc(-c2ccc(C3(C(=O)O)CC3)c(F)c2)ncn1` [compound 386], in that order: 40 nM and 559 nM.
`CNc1nnc(-c2ccc(-c3cc(NCCn4c(C)cc5ccccc54)ncn3)cc2)s1` [compound 387]: the IC50 in assay [1] was found to be 2 nM; in assay [2] it was 556 nM.
For `COc1ccc(Cl)c2c1cc(C)n2CCNc1cc(-c2ccc3c(C(=O)O)n[nH]c3c2)ncn1` [compound 388], in that order: 34 nM and 963 nM.
For `COc1ccc(F)c2c1cc(C)n2CCNc1cc(-c2ccc3c(C(=O)O)n[nH]c3c2)ncn1` [compound 389], in that order: 26 nM and 734 nM.
For `Cc1cc(F)cc2c1cc(C)n2CCNc1cc(-c2cc(Cl)c(C(=O)O)c(Cl)c2)ncn1` [compound 390], the IC50 in assay [1] came to 38 nM; in assay [2] it was 146 nM.
The like results for `CCOc1cc(-c2cc(NCCn3c(C#N)cc4c(OC)cc(F)cc43)ncn2)sc1C(=O)O` [compound 391] were, in that order, 2 nM and 3 nM.
For `CCNc1cc(-c2cc(NCCn3c(C)cc4c(C)ccc(F)c43)ncn2)cc(F)c1C(=O)O` [compound 392], in that order: 7 nM and 97 nM.
In the case of `CCCc1cc(-c2cc(NCCn3c(C)cc4c(C#N)ccc(F)c43)ncn2)ccc1C(=O)O` [compound 393], the figures for the IC50 in assay [1] and in assay [2] were 9 nM and 745 nM, respectively.
Take `COc1ccc(F)c2c1cc(C)n2CCNc1cc(-c2ccc(C(=O)O)c([N+](=O)[O-])c2)ncn1` [compound 394]: the IC50 amounted to 15 nM in assay [1] and 296 nM in assay [2].

In general, IC50 refers to the concentration that inhibits the measured activity by half.
